The values that follow come from patent publication US10934285B2, “Compounds and compositions for inhibiting the activity of SHP2” (Novartis AG, priority 2016, dated 2021).

In this experiment the target is SHP2 (Homo sapiens (Human), UniProt Q06124). The experiment in a line: SHP2 Allosteric Inhibition Assay. The experiment is classed as biochemical. The settings on record: 0.5 nM SHP2 activated with 0.5 μM peptide IRS1_pY1172(dPEG8)pY1222; surrogate substrate DiFMUP; prompt fluorescence. The procedure, abridged: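 DiFMUP surrogate substrate read by prompt fluorescence, added after 30-60 min preincubation at 25° C and reacted 30 min at 25° C. SHP2 is activated through bis-tyrosyl-phosphorylated peptide binding to its SH2 domains. IC50 from normalized regression curve fitting with control-based normalization.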

The structures appear in SMILES notation.

Chain of SHP2 (Q06124 whole entry, the tested form may be a part): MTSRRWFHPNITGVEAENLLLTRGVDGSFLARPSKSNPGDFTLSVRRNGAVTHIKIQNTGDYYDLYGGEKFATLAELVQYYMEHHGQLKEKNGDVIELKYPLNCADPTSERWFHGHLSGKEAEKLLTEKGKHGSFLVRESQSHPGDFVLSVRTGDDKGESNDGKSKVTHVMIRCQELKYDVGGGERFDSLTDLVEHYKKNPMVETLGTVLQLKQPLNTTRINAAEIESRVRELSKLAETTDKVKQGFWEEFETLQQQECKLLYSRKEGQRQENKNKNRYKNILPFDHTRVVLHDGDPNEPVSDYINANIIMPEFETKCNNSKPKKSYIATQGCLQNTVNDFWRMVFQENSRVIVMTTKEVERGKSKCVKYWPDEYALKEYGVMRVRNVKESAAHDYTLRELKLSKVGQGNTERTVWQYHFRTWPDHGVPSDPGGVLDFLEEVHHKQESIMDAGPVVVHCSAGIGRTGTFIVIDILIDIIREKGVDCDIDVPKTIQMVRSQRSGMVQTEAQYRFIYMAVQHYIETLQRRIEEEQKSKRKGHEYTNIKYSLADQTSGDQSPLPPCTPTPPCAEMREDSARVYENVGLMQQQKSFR

For the compound `CC1(N)CCN(c2nnc(Sc3cccc(NC(=O)C4=C(O)CN(c5ccccc5)C4=O)c3Cl)c(N)n2)CC1` [Example 52, N-(3-((5-amino-3-(4-amino-4-methylpiperidin-1-yl)-1,2,4-triazin-6-yl)thio)-2-chlorophenyl)-4-hydroxy-2-oxo-1-phenyl-2,5-dihydro-1H-pyrrole-3-carboxamide], the half-inhibitory concentration (IC50) was found to be 3 nM.

Take `CC1(CN)CCN(c2nnc(Sc3cccc(NC(=O)c4c(O)nc5ccccn5c4=O)c3Cl)c(N)n2)CC1` [Example 33, N-(3-((5-amino-3-(4-(aminomethyl)-4-methylpiperidin-1-yl)-1,2,4-triazin-6-yl)thio)-2-chlorophenyl)-2-hydroxy-4-oxo-4H-pyrido[1,2-a]pyrimidine-3-carboxamide]: 10 nM corresponded to half-maximal inhibition (IC50).

As for `CC1(CN)CCN(c2cnc(Sc3cccc(NC(=O)c4c(O)nc5n(c4=O)CCCC5)c3Cl)c(N)n2)CC1` [Example 7, N-(3-((3-amino-5-(4-(aminomethyl)-4-methylpiperidin-1-yl)pyrazin-2-yl)thio)-2-chlorophenyl)-2-hydroxy-4-oxo-6,7,8,9-tetrahydro-4H-pyrido[1,2-a]pyrimidine-3-carboxamide], the IC50 turned out to be 6 nM.

In turn, `CC1(N)CCN(c2cnc(Sc3cccc(NC(=O)C4=C(O)CN(c5ccccc5)C4=O)c3C(F)(F)F)c(N)n2)CC1` [Example 67, N-(3-((3-Amino-5-(4-amino-4-methylpiperidin-1-yl)pyrazin-2-yl)thio)-2-(trifluoromethyl)phenyl)-4-hydroxy-2-oxo-1-phenyl-2,5-dihydro-1H-pyrrole-3-carboxamide] displayed a concentration for half-maximal inhibition (IC50) of 4 nM.

With `CC1(N)CCN(c2cnc(Sc3cccc(NC(=O)c4c(O)nc5ccccn5c4=O)c3Cl)c(N)n2)CC1` [Example 1, N-(3-((3-Amino-5-(4-amino-4-methylpiperidin-1-yl)pyrazin-2-yl)thio)-2-chlorophenyl)-2-hydroxy-4-oxo-4H-pyrido[1,2-a]pyrimidine-3-carboxamide], the IC50 worked out at 6 nM.

Compound `CCC1C(O)=C(C(=O)Nc2cccc(Sc3ccc4nc(N5CCCCC5)[nH]c4n3)c2Cl)C(=O)N1C` (stereo not drawn) [Example 62, N-(2-chloro-3-((2-(piperidin-1-yl)-3H-imidazo[4,5-b]pyridin-5-yl)thio)phenyl)-5-ethyl-4-hydroxy-1-methyl-2-oxo-2,5-dihydro-1H-pyrrole-3-carboxamide] registered an IC50 of 25 nM.
